For the assay, the target named is T1, MEK (Homo sapiens, UniProt Q02750).
T1 construct: no tag is given for the 2D mutant
Put plainly: in vitro MEK assay. It counts as biochemical. As to the method: For evaluation of direct MEK activity, 10 μg GST-MEK, is incubated in the presence of absence of test compound with 5 μg of a glutathione S-transferase fusion protein containing p44MAP kinase with a lysine to alanine mutation at position 71 (GST-MAPK-KA). This mutation eliminates kinase activity of MAPK, so only kinase activity attributed to the added MEK remains. Incubations are 15 minutes at 30° C. in a final volume of 50 μL containing 50 mM Tris (pH 7.5), […], 2, μM EGTA, and 10 μM [γ-^32P]ATP. The reaction is stopped by addition of Laemmli SDS sample buffer. Phosphorylated GST-MAPK-KA is resolved by electrophoresis on a 10% polyacrylamide gel. Radioactivity incorporated into GST-MAPK-KA is determined by autoradiography, and subsequent scintillation counting of excised bands.
Alternatively, an artificially activated MEK containing serine to glutamate mutations at positions 218 and 222 (GST-MEK-2E) is used. When these two sites are phosphorylated, MEK activity is increased. Phosphorylation of these sites can be mimicked by mutation of the serine residues to glutamate. For this assay, 5 μg GST-MEK-2E is incubated with 5 μg GST-MAPK-KA for 15 minutes at 30° C. in the same reaction buffer as described above. Reactions are terminated and analyzed as above.

T1 sequence (Q02750 whole entry S218D/S222D, form open): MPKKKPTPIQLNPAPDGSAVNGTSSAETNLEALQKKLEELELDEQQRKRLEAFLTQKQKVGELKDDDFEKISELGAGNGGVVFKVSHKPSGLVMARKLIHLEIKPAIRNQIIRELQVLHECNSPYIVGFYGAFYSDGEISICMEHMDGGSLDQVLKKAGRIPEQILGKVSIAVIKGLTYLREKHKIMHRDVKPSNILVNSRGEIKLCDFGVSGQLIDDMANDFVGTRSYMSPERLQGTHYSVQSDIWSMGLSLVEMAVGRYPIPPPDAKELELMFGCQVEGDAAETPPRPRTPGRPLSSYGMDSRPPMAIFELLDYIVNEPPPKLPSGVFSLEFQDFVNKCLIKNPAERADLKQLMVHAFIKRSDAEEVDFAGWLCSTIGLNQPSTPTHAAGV

As for `Cc1cc(I)ccc1N1COC(=O)c2cc(C(=O)N3CCCCC3CCO)c(F)c(F)c21` (stereo not shown) [Example 32, 7,8-Difluoro-6-[2-(2-hydroxy-ethyl)-piperidine-1-carbonyl]-1-(4-iodo-2-methyl-phenyl)-1,2-dihydro-3,1-benzoxazin-4-one], the “in vitro MEK assay: % inhibition @ 1 μM” value is 76%.

On to `Cc1cc(I)ccc1Nc1c(C(=O)O)cc(C(=O)N2CCCC(O)C2)c(F)c1F` (stereo not shown) [Example 101, 3,4-Difluoro-5-[1-(3-hydroxy-piperidin-1-yl)-methanoyl]-2-(4-iodo-2-methyl-phenylamino)-benzoic acid], for which the “in vitro MEK assay: % inhibition @ 1 μM” value is 75%.

`CSc1nc(NC(=O)c2cc3c(c(F)c2F)N(c2ccc(I)cc2C)COC3=O)n[nH]1` [Example 35, 7,8-Difluoro-1-(4-iodo-2-methyl-phenyl)-4-oxo-1,4-dihydro-2H-3,1-benzoxazine-6-carboxylic acid (5-methylsulfanyl-1H-1,2,4-triazol-3-yl)-amide]: the “in vitro MEK assay: % inhibition @ 1 μM” value was found to be 76%.

For `Cc1cc(I)ccc1N1COC(=O)c2cc(C(=O)Nc3nc4ccccc4s3)c(F)c(F)c21` [Example 29, 7,8-Difluoro-1-(4-iodo-2-methyl-phenyl)-4-oxo-1,4-dihydro-2H-3,1-benzoxazine-6-carboxylic acid benzothiazol-2-ylamide], the “in vitro MEK assay: % inhibition @ 1 μM” value was 21%.

In the case of `Cc1cc(I)ccc1N1COC(=O)c2cc(C(=O)N3CCN(C)CC3)c(F)c(F)c21` [Example 17], the “in vitro MEK assay: % inhibition @ 1 μM” value is 78%.

As for `Cc1cc(I)ccc1Nc1c(C(=O)O)cc(C(=O)Nc2cccnc2)c(F)c1F` [Example 74, 4,5-Difluoro-6-(4-iodo-2-methyl-phenylamino)-N-pyridin-3-yl-isophthalamic acid], the “in vitro MEK assay: % inhibition @ 1 μM” value was found to be 50%.

On to `Cc1cc(I)ccc1Nc1c(C(=O)O)cc(C(=O)NCCC2CCCN2C)c(F)c1F` (stereo not shown) [Example 66, 4,5-Difluoro-6-(4-iodo-2-methyl-phenylamino)-N-[2-(1-methyl-pyrrolidin-2-yl)-ethyl]-isophthalamic acid], for which the “in vitro MEK assay: % inhibition @ 1 μM” value is 14%.

For `Cc1cc(I)ccc1N1COC(=O)c2cc(C(=O)N3CCC(O)C3)c(F)c(F)c21` (stereo not shown) [Example 40, 7,8-Difluoro-6-(3-hydroxy-pyrrolidine-1-carbonyl)-1-(4-iodo-2-methyl-phenyl)-1,2-dihydro-3,1-benzoxazin-4-one], the “in vitro MEK assay: % inhibition @ 1 μM” value was determined as 42%.

For the compound `COc1ccc(NC(=O)c2cc3c(c(F)c2F)N(c2ccc(I)cc2C)COC3=O)cn1` [Example 46, 7,8-Difluoro-1-(4-iodo-2-methyl-phenyl)-4-oxo-1,4-dihydro-2H-3,1-benzoxazine-6-carboxylic acid (6-methoxy-pyridin-3-yl)amide], the “in vitro MEK assay: % inhibition @ 1 μM” value was determined as 43%.

A word on the IC50: it is the concentration that inhibits the measured activity by half. As for `Cc1cc(I)ccc1Nc1c(C(=O)O)cc(C(=O)N2CCC(O)C2)c(F)c1F` (stereo not shown) [Example 77, 3,4-Difluoro-5-[1-(3-hydroxy-pyrrolidin-1-yl)-methanoyl]-2-(4-iodo-2-methyl-phenylamino)-benzoic acid], the IC50 was 0.88 µM and the “in vitro MEK assay: % inhibition @ 1 μM” value is 83%.

Consider `Cc1cc(I)ccc1Nc1c(C(=O)O)cc(C(=O)NCCN2CCCCC2)c(F)c1F` [Example 102], for which the “in vitro MEK assay: % inhibition @ 1 μM” value is recorded as 25%.

Take `Cc1cc(I)ccc1N1COC(=O)c2cc(C(=O)Nc3cc[nH]n3)c(F)c(F)c21` [Example 36, 7,8-Difluoro-1-(4-iodo-2-methyl-phenyl)-4-oxo-1,4-dihydro-2H-3,1-benzoxazine-6-carboxylic acid (1H-pyrazol-3-yl)-amide]: the “in vitro MEK assay: % inhibition @ 1 μM” value is on record as 60%.

Consider `CCc1nnc(NC(=O)c2cc3c(c(F)c2F)N(c2ccc(I)cc2C)COC3=O)s1` [Example 26, 7,8-Difluoro-1-(4-iodo-2-methyl-phenyl)-4-oxo-1,4-dihydro-2H-3,1-benzoxazine-6-carboxylic acid (5-ethyl-1,3,4-thiadiazol-2-yl)-amide], for which the “in vitro MEK assay: % inhibition @ 1 μM” value was 20%.

In the case of `Cc1cc(I)ccc1N1COC(=O)c2cc(C(=O)NCCc3c[nH]cn3)c(F)c(F)c21` [Example 50, 7,8-Difluoro-1-(4-iodo-2-methyl-phenyl)4-oxo-1,4-dihydro-2H-3,1-benzoxazine-6-carboxylic acid [2-(1H-imidazol4-yl)-ethyl]-amide], the “in vitro MEK assay: % inhibition @ 1 μM” value worked out at 44%.

In the case of `Cc1cc(I)ccc1N1COC(=O)c2cc(C(=O)Nc3cccnc3)c(F)c(F)c21` [Example 37, 7,8-Difluoro-1-(4-iodo-2-methyl-phenyl)-4-oxo-1,4-dihydro-2H-3,1-benzoxazine-6-carboxylic acid pyridin-3-ylamide], the “in vitro MEK assay: % inhibition @ 1 μM” value is given as 20%.

With `Cc1cc(I)ccc1N1COC(=O)c2cc(C(=O)N3CCCC(CO)C3)c(F)c(F)c21` (stereo not shown) [Example 39, 7,8-Difluoro-6-(3-hydroxymethyl-piperidine-1-carbonyl)-1-(4-iodo-2-methyl-phenyl)-1,2-dihydro-3,1-benzoxazin-4-one], the “in vitro MEK assay: % inhibition @ 1 μM” value came to 71%.

`Cc1cc(I)ccc1N1COC(=O)c2cc(C(=O)N3CCC(N4CCCC4)CC3)c(F)c(F)c21` [Example 41]: the “in vitro MEK assay: % inhibition @ 1 μM” value amounted to 7%.

In the case of `Cc1cc(I)ccc1N1COC(=O)c2cc(C(=O)N3CCOCC3)c(F)c(F)c21` [Example 51, 7,8-Difluoro-1-(4-iodo-2-methyl-phenyl)-6-(morpholine-4-carbonyl)-1,2-dihydro-3,1-benzoxazin-4-one], the “in vitro MEK assay: % inhibition @ 1 μM” value is listed as 72%.

As to `Cc1cc(I)ccc1Nc1c(C(=O)O)cc(C(=O)NCCc2c[nH]cn2)c(F)c1F` [Example 88, 4,5-Difluoro-N-[2-(1H-imidazol-4-yl)-ethyl]-6-(4-iodo-2-methyl-phenylamino)-isophthalamic acid], the IC50 turned out to be 1.4 µM and the “in vitro MEK assay: % inhibition @ 1 μM” value was determined as 60%.

Turning to `Cc1cc(I)ccc1N1COC(=O)c2cc(C(=O)Nc3nncs3)c(F)c(F)c21` [Example 21, 7,8-Difluoro-1-(4-iodo-2-methyl-phenyl)-oxo-1,4-dihydro-2H-3,1-benzoxazine-6-carboxylic acid 1,3,4-thiadiazol-2-ylamide], the “in vitro MEK assay: % inhibition @ 1 μM” value is 31%.

For `Cc1cc(I)ccc1Nc1c(C(=O)O)cc(C(=O)NCCc2ccccn2)c(F)c1F` [Example 67, 4,5-Difluoro-6-(4-iodo-2-methyl-phenylamino)-N-(2-pyridin-2-yl-ethyl)-isophthalamic acid], it took 3.3 µM to reach half-maximal inhibition (IC50) and the “in vitro MEK assay: % inhibition @ 1 μM” value is reported as 81%.

`Cc1cc(I)ccc1N1COC(=O)c2cc(C(=O)N3CCN(C=O)CC3)c(F)c(F)c21` [Example 15, 4-[7,8-Difluoro-1-(4-iodo-2-methyl-phenyl)-4-oxo-1,4-dihydro-2H-3,1-benzoxazine-6-carbonyl]-piperazine-1-carbaldehyde]: the “in vitro MEK assay: % inhibition @ 1 μM” value is given as 13%.

Take `Cc1cc(I)ccc1N1COC(=O)c2cc(C(=O)NCCOCCO)c(F)c(F)c21` [Example 18, 7,8-Difluoro-1-(4-iodo-2-methyl-phenyl)-4-1,4-dihydro-2H-3,1-benzoxazine-6-carboxylic acid [2-(2-hydroxy-ethoxy)-ethyl]-amide]: the “in vitro MEK assay: % inhibition @ 1 μM” value turned out to be 43%.

On to `COc1ccc(N(C)C(=O)c2cc(C(=O)O)c(Nc3ccc(I)cc3C)c(F)c2F)cc1` [Example 94, 4,5-Difluoro-6-(4-iodo-2-methyl-phenylamino)-N-(4-methoxy-phenyl)-N-methyl-isophthalamic acid], for which the “in vitro MEK assay: % inhibition @ 1 μM” value stood at 92%.

`Cc1cc(I)ccc1Nc1c(C(=O)O)cc(C(=O)NCCCN2CCCC2=O)c(F)c1F` [Example 62, 4,5-Difluoro-6-(4-iodo-2-methyl-phenylamino)-N-[3-(2-oxo-pyrrolidin-1-yl)-propyl]-isophthalamic acid]: the “in vitro MEK assay: % inhibition @ 1 μM” value was found to be 78%.

For `Cc1cc(I)ccc1Nc1c(C(=O)O)cc(C(=O)N(C)CCc2c[nH]c3ccccc23)c(F)c1F` [Example 95, 4,5-Difluoro-N-[2-(1H-indol-3-yl)-ethyl]-6-(4-iodo-2-methyl-phenylamino)-N-methyl-isophthalamic acid], the “in vitro MEK assay: % inhibition @ 1 μM” value is 77%.

On to `Cc1cc(I)ccc1N1COC(=O)c2cc(C(=O)Nc3ccc(Cl)nc3)c(F)c(F)c21` [Example 45], for which the “in vitro MEK assay: % inhibition @ 1 μM” value is 62%.

For the compound `Cc1cc(I)ccc1Nc1c(C(=O)O)cc(C(=O)N2CC[C@@H](O)C2)c(F)c1F` [Example 61, 3,4-Difluoro-5-[1-((R)-3-hydroxy-pyrrolidin-1-yl)-methanoyl]-2-(4-iodo-2-methyl-phenylamino)-benzoic acid], the “in vitro MEK assay: % inhibition @ 1 μM” value was 75%.

As to `Cc1cc(I)ccc1Nc1c(C(=O)O)cc(C(=O)N2CCCCC2CO)c(F)c1F` (stereo not shown) [Example 70, 3,4-Difluoro-5-[1-(2-hydroxymethyl-piperidin-1-yl)-methanoyl]-2-(4-iodo-2-methyl-phenylamino)-benzoic acid], the “in vitro MEK assay: % inhibition @ 1 μM” value is 49%.

On to `Cc1cc(I)ccc1Nc1c(C(=O)O)cc(C(=O)NCCOCCO)c(F)c1F` [Example 65, 4,5-Difluoro-N-[2-(2-hydroxy-ethoxy)-ethyl]-6-(4-iodo-2-methyl-phenylamino)-isophthalamic acid], for which 1.38 µM corresponded to half-maximal inhibition (IC50) and the “in vitro MEK assay: % inhibition @ 1 μM” value came to 63%.

(Values after patent publication US7001905B2, “Substituted diarylamines as MEK inhibitors” (Warner-Lambert Company, priority 2000, dated 2006).)
